According to patent publication US6087373A, “Thrombin inhibitors” (Merck & Co., Inc., priority 1998, dated 2000):
Where a SMILES comes first, the peptide text is derived from it. [ ]: non-standard residue; d: D form. The star is where a group is joined. pNA = O=[N+]([O-])c1ccc(N*)cc1; Sar = CNCC(=O)O

Assays:
human a-thrombin = molecular target: T1, human a-thrombin (Homo sapiens, UniProt P00734); experiment: In vitro assay for determining proteinase inhibition (human a-thrombin, hydrolysis of p-nitroanilide or fluorogenic substrate); type: biochemical; conditions: 25° C., 0.05 M TRIS buffer pH 7.4, 0.15 M NaCl, 0.1% PEG
T1 construct: human a-thrombin
Experimental: In vitro assay for determining proteinase inhibition
(§1) Assays of human a-thrombin and human trypsin were performed at 25° C. in 0.05 M TRIS buffer pH 7.4, 0.15 M NaCl, 0.1% PEG. Trypsin assays also contained 1 mM CaCl2.
Concentrations of stock solutions of Z-GPR-afc were determined from measurements of absorbance at 380 nm of the 7-amino-4-trifluoromethylcoumarin produced upon complete hydrolysis of an aliquot of the stock solution by thrombin.
Activity assays were performed by diluting a stock solution of substrate at least tenfold to a final concentration ≤0.5 Km into a solution containing enzyme or enzyme equilibrated with inhibitor. Times required to achieve equilibration between enzyme and inhibitor were determined in control experiments. Initial velocities of product formation in the absence (Vo) or presence of inhibitor (Vi) were measured. Assuming competitive inhibition, and that unity is negligible compared Km /[S], […] (where [S], [I], and e respectively represent the total concentrations, of substrate, inhibitor and enzyme), the equilibrium constant (Ki) for dissociation of the inhibitor from the enzyme can be obtained from the dependence of Vo /Vi on [I] shown in equation 1.

human trypsin = experiment: Substrate hydrolysis by human trypsin (Km); type: biochemical; conditions: p-nitroanilide substrate, 405 nm, 25° C., pH 7.4, 1 mM CaCl2
Experimental: as §1

Row | Structure (SMILES) | Ki (human a-thrombin) [nM] | Km (human trypsin) [µM]
1 | Cc1nc(N)ccc1CNC(=O)Cn1c(C)cc2c(c1=O)NC(=O)C(Cc1cccc(F)c1)C2 (stereo not drawn) | 1.1 | 
2 | CC[C@H](C)CC1Cc2cc(C)n(CC(=O)NCc3ccc(N)nc3C)c(=O)c2NC1=O (stereo partly drawn) | 0.52 | 
3 | CNCC(=O)N1CCC[C@H]1C(=O)N[C@@H](CCCNC(=N)N)C(=O)Nc1ccc([N+](=O)[O-])cc1 [sar-PR-pna, sarcosine-Pro-Arg-p-nitroanilide] (H-[Sar]-Pro-Arg-pNA) |  | 59

Continued by falling Ki (human a-thrombin), values first:

Row | Ki (human a-thrombin) [nM] | Structure (SMILES) | Km (human trypsin) [µM]
4 | 350 | Cc1nc(N)ccc1CNC(=O)Cn1c(C)cc2c(c1=O)NC(=O)CC2 | 
5 | 1.5 | Cc1nc(N)ccc1CNC(=O)Cn1c(C)cc2c(c1=O)NC(=O)C(Cc1cc(F)cc(F)c1)C2 (stereo not drawn) | 
6 | 0.64 | Cc1nc(N)ccc1CNC(=O)Cn1c(C)cc2c(c1=O)NC(=O)C(Cc1cc(F)ccc1F)C2 (stereo not drawn) | 
